The target in one test is ATM (Homo sapiens, UniProt Q13315). As to the kind of experiment: ATM Human PIKK Kinase Enzymatic ELISA/EIA Assay, KinaseProfiler (Eurofins Discovery). The class given is biochemical. The conditions noted are these: for IC50: KinaseProfiler, Km ATP, Table 15, read-out: Inhibition of PIKK kinase activity ATM; for remaining activity at 1 µM: read-out: ATM, Percent of control at 1 μM. On the technique in general: An ELISA detects its analyte on a solid surface through an enzyme-linked reagent.
Chain of ATM (Q13315 whole entry): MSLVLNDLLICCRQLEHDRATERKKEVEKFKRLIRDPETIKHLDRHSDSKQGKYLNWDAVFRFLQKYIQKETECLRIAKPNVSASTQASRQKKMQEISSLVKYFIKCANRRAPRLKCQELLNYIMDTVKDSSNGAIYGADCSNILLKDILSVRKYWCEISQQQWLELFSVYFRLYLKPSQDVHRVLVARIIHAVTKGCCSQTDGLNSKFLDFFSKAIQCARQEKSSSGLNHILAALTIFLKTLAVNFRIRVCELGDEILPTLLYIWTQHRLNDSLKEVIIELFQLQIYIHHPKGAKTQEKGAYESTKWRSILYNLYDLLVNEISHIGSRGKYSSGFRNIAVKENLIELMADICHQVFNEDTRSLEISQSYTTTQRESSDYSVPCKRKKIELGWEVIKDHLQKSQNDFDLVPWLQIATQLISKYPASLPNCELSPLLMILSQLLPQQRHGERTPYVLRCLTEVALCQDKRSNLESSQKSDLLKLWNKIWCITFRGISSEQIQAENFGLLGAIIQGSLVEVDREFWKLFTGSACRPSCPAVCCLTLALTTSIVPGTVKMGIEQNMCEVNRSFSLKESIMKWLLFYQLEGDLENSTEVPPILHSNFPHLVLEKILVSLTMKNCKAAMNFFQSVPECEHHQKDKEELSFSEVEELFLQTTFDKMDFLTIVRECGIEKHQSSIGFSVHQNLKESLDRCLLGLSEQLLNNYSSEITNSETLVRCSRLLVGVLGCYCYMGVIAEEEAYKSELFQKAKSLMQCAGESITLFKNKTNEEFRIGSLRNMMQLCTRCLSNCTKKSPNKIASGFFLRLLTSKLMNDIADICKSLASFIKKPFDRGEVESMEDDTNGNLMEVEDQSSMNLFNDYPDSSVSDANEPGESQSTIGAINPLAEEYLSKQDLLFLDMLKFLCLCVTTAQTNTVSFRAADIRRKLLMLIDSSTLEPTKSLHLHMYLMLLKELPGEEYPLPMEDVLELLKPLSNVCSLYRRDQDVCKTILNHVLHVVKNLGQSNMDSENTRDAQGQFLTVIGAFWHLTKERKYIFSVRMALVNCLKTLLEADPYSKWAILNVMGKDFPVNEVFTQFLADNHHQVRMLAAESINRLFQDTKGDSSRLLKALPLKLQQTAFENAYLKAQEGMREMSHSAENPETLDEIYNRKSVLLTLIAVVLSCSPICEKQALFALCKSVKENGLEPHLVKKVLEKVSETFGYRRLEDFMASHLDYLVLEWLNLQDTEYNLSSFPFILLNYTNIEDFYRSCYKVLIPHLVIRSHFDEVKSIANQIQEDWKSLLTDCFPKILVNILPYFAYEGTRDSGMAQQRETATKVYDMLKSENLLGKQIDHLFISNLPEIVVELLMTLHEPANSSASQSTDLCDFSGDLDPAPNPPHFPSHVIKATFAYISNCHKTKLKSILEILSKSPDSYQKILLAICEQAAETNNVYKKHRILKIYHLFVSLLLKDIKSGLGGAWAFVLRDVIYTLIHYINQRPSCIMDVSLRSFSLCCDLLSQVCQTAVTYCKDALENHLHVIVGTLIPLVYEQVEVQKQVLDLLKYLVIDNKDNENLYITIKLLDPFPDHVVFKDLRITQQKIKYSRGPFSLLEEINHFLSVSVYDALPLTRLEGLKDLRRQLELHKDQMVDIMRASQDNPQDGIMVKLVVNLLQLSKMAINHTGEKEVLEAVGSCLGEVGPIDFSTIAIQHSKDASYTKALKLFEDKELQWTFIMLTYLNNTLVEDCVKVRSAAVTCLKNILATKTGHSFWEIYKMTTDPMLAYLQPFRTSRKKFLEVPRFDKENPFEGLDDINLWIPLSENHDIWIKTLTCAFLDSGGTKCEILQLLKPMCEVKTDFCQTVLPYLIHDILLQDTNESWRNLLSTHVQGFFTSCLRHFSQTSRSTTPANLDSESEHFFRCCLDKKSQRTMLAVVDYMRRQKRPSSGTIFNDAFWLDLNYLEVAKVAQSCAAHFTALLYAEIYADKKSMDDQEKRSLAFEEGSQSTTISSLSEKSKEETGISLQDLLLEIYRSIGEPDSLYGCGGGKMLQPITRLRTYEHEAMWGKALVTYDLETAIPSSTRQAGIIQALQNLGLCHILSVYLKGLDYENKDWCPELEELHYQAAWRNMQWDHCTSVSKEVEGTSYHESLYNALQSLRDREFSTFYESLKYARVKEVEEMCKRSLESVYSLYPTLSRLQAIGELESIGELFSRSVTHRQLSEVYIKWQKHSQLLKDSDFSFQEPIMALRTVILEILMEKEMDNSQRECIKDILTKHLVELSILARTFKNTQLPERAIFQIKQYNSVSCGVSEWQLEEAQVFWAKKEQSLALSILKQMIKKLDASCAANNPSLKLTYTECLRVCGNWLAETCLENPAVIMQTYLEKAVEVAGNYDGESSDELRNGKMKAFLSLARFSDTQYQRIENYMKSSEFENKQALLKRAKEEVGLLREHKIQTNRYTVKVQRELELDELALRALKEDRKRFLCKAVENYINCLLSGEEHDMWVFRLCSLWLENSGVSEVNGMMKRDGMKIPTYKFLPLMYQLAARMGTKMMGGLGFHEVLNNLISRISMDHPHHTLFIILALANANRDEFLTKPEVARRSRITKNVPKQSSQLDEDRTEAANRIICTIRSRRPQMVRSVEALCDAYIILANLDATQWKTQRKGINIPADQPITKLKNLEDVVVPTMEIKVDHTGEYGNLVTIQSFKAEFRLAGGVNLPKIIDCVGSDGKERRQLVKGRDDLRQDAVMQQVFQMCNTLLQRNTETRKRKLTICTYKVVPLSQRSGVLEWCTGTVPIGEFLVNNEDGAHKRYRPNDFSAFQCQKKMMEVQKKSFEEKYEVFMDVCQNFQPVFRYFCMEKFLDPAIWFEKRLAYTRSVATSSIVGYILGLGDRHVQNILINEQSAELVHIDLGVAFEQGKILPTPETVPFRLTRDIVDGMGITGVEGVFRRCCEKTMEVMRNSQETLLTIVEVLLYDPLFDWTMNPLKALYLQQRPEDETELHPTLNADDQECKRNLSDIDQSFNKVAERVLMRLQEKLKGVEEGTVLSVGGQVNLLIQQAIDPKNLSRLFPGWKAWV

In another test the test system is UT-SCC-54C cells. Nature of the test: Radiosensitisation of UT-SCC-54C HNSCC cells, regrowth (sulforhodamine B) assay, oxic (Table 16). The class given is cell-based, human. The conditions noted are these: for IC50: Homo sapiens, read-out: IC50; for S50: compound in combination with 3 Gy of radiation, 50% inhibition of regrowth fraction, UT-SCC-54C, oxic.
The target in another test is human DNA-PK (Homo sapiens, UniProt P78527). As to the kind of experiment: Inhibition of DNA-PKcs kinase activity, HotSpot assay (Reaction Biology), [γ-33P]-ATP phosphorylation of peptide substrate. The class given is biochemical.
The next test deals with human PI3Kα (p110α/p85α) (Homo sapiens, UniProt P42336). As to the kind of experiment: Inhibition of PI3Kα kinase activity, ADP-Glo Assay (Reaction Biology). The class given is biochemical. The conditions noted are these: 10 μM ATP; mean of two replicates; Table 12; read-out: Inhibition of kinase activity (as IC50) PICK. For orientation: ADP-Glo turns the ADP formed in a reaction into a luminescent signal.
Chain of human PI3Kα (p110α/p85α) (P42336 whole entry): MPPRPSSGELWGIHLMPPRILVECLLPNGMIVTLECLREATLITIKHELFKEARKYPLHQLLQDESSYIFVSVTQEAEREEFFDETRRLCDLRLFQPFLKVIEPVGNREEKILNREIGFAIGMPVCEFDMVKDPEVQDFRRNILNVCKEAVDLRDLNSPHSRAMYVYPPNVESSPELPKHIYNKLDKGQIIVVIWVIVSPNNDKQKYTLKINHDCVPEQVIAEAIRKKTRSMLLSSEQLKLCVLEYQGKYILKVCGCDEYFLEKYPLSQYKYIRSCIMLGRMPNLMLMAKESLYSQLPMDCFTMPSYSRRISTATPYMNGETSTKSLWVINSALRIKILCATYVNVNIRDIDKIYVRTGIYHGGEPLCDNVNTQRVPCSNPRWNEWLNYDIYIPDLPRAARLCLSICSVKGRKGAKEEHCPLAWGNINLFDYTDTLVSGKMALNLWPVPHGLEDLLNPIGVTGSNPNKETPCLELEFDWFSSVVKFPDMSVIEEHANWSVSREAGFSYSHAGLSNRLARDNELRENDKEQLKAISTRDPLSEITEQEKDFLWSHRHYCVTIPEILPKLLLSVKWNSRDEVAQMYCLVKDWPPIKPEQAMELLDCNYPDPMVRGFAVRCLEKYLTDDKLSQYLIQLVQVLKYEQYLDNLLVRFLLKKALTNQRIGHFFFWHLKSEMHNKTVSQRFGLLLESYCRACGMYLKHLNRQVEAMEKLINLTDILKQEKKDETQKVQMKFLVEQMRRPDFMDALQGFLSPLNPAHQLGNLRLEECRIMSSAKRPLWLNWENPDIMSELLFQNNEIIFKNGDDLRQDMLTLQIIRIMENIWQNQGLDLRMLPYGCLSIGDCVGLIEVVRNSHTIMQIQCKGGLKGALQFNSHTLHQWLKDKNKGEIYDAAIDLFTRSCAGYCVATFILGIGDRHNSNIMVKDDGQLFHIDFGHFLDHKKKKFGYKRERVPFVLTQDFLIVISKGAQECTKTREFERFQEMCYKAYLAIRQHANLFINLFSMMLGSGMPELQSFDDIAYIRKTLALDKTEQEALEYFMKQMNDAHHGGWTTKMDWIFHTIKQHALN
Chain of human PI3Kα (p110α/p85α) (P27986 whole entry partner): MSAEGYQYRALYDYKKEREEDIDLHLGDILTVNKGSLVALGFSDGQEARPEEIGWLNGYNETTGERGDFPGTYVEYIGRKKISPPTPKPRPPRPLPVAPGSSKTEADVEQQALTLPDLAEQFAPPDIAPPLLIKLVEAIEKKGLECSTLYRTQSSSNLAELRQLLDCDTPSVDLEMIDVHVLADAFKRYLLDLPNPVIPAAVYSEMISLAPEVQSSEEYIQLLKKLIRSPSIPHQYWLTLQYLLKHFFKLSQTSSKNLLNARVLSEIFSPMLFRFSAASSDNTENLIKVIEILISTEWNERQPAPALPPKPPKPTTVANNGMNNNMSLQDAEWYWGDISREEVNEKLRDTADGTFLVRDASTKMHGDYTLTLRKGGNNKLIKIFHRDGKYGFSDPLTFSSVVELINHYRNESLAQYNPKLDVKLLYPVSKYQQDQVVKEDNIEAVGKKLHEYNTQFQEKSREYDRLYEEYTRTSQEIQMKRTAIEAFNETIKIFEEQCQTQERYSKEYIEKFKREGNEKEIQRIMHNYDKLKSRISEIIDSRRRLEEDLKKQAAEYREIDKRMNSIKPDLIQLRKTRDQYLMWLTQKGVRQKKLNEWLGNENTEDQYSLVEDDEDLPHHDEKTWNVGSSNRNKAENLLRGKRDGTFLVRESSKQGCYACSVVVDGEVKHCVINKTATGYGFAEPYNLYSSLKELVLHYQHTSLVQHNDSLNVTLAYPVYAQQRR

A further test concerns the target human mTOR (Homo sapiens, UniProt P42345). As to the kind of experiment: Inhibition of mTOR kinase activity, HotSpot assay, phosphorylation of 4EPB1.
The mark [1] stands for this setting: 10 μM ATP, 10 μg/ml DNA, mean of two replicates, Table 12, read-out: Inhibition of kinase activity (as IC50) DNA-PK (converted).
The mark [2] stands for this setting: HotSpot assay Reaction Biology Corp., Table 15, read-out: Inhibition of PIKK kinase activity DNA-PK.

Where two headings read alike, the source gives them in different places.

With `Cn1c(=O)n(C2CCCC2)c2cc(Nc3ccc4ncccc4c3)ncc21` [Compound 63, 1-Cyclopentyl-3-methyl-6-(quinolin-6-ylamino)-1,3-dihydro-2H-imidazo[4,5-c]pyridin-2-one], the IC50 on ATM worked out at 719 nM.
Regarding `Cn1c(=O)n(C2CCCC2)c2cc(Nc3ccccn3)ncc21` [Compound 73, 1-Cyclopentyl-3-methyl-6-(pyridin-2-ylamino)-1,3-dihydro-2H-imidazo[4,5-c]pyridin-2-one], the IC50 on ATM is 275 nM.
For `COc1ccc(Nc2cc3c(cn2)n(C)c(=O)n3C2CCOCC2)cc1` [Compound 215, 6-((4-Methoxyphenyl)amino)-3-methyl-1-(tetrahydro-2H-pyran-4-yl)-1,3-dihydro-2H-imidazo[4,5-c]pyridin-2-one], the IC50 in the test with UT-SCC-54C cells was over 10000 nM; on human DNA-PK (setting [1]), 51 nM; on human DNA-PK (setting [2]), 51 nM; on human PI3Kα (p110α/p85α) it was 12500 nM; at human mTOR (Inhibition of PIKK kinase activity mTOR/FRAP (nM), HotSpot assay Reaction Biology Corp., Table 15), 12300 nM; against human mTOR (Inhibition of kinase activity (as IC50) mTOR (nM), 10 μM ATP, mean of two replicates, Table 12), 12300 nM. The “S50” value with UT-SCC-54C cells turned out to be 7.5 µM. Moreover, the remaining activity at 1 µM at ATM was found to be 90%.
In the case of `Cn1c(=O)n(C2CCCC2)c2cc(Nc3cccc4ncccc34)ncc21` [Compound 65, 1-Cyclopentyl-3-methyl-6-(quinolin-5-ylamino)-1,3-dihydro-2H-imidazo[4,5-c]pyridin-2-one], the remaining activity at 1 µM on ATM was 93%.
As for `Cc1cc(NCCN(C)C)ccc1Nc1cc2c(cn1)n(C)c(=O)n2C1CCCC1` [Compound 56, 1-Cyclopentyl-6-((4-((2-(dimethylamino)ethyl)amino)-2-methylphenyl)amino)-3-methyl-1,3-dihydro-2H-imidazo[4,5-c]pyridin-2-one], at ATM, the remaining activity at 1 µM amounted to 86%.
With `Cn1c(=O)n(C2CCCC2)c2cc(Nc3cccc4cnccc34)ncc21` [Compound 66, 1-Cyclopentyl-6-(isoquinolin-5-ylamino)-3-methyl-1,3-dihydro-2H-imidazo[4,5-c]pyridin-2-one], the remaining activity at 1 µM at ATM is 92%.
With `Cn1c(=O)n(-c2ccc(C(C)(C)C#N)cc2)c2cc(Nc3ccc4ncccc4c3)ncc21` [Compound 213, 2-Methyl-2-(4-(3-methyl-2-oxo-6-(quinolin-6-ylamino)-2,3-dihydro-1H-imidazo[4,5-c]pyridin-1-yl)phenyl)propanenitrile], the IC50 in the test with UT-SCC-54C cells is over 10000 nM; at human DNA-PK (setting [1]), 1.23 nM; at human DNA-PK (setting [2]), 1.23 nM; at human PI3Kα (p110α/p85α), 1730 nM. The “S50” value in the test with UT-SCC-54C cells stood at 2.22 µM. In addition, on ATM, the remaining activity at 1 µM came to 68%.
As for `Cn1c(=O)n(C2CCCC2)c2cc(Nc3cnc4ccccc4c3)ncc21` [Compound 64, 1-Cyclopentyl-3-methyl-6-(quinolin-3-ylamino)-1,3-dihydro-2H-imidazo[4,5-c]pyridin-2-one], the IC50 on ATM is 1100 nM.
Turning to `Cc1cc(Nc2cc3c(cn2)n(C)c(=O)n3C2CCCC2)c2ccccc2n1` [Compound 67, 1-Cyclopentyl-3-methyl-6-((2-methylquinolin-4-yl)amino)-1,3-dihydro-2H-imidazo[4,5-c]pyridin-2-one], on ATM, the remaining activity at 1 µM was found to be 88%.

(Values after patent US20230365559A1, “NOVEL AMINOPYRIDINES AND THEIR USE IN TREATING CANCER” (priority 2020, published 2023).)
